Tested on: MDRAB
Assay: Checkerboard assay (combined-use MIC, FIC)
Type: cell-based, Acinetobacter baumannii
Method: Test methods of the sensibilization effects of the test product to similar antibiotics: it is operated by referring to a checkerboard assay recommended by NCCLS.
The checkerboard assay is performed in a 96-pore sterile culture plate.
Calculation of a Fractional Inhibitory Concentration (FIC): FIC=S20b combined-use MIC/S20b single-use MIC+antibiotic combined-use MIC/antibiotic single-use MIC. By calculating the FIC, the combined antibacterial interaction between the EA and the antibiotic is evaluated, with synergistic effect for FIC≤0.5, additive effect for 0.5<FIC≤1, indifferent effect for 1<FIC≤2 and antagonistic effect for FIC>2. According to a sterile growth pore, the optimum concentration ratio between the EA and the antibiotic is founded out. At last, the effect of the EA to strengthen the efficacy of the antibiotic is evaluated.

C[C@@H](O)[C@H]1C(=O)N2C(C(=O)O)=C(SCCN=CN)C[C@H]12 [IMP, imipenem]
combined-use MIC (strain A3, EA (10% ethanol extract) with IMP): 8 µg/mL
combined-use MIC (strain A3, EA (60% ethanol extract) + IMP combined): 8 µg/mL
combined-use MIC (strain A3, EA (95% ethanol extract) + IMP combined): 8 µg/mL
combined-use MIC (strain A3, EA (water extract) with IMP): 16 µg/mL
combined-use MIC (strain A4, EA (10% ethanol extract) with IMP): 8 µg/mL
combined-use MIC (strain A4, EA (60% ethanol extract) + IMP combined): 0.5 µg/mL
combined-use MIC (strain A4, EA (95% ethanol extract) + IMP combined): 0.5 µg/mL
combined-use MIC (strain A4, EA (water extract) with IMP): 1 µg/mL
combined-use MIC (strain A5, EA (10% ethanol extract) with IMP): 8 µg/mL
combined-use MIC (strain A5, EA (60% ethanol extract) + IMP combined): 8 µg/mL
combined-use MIC (strain A5, EA (water extract) with IMP): 16 µg/mL
combined-use MIC (strain A6, EA (10% ethanol extract) with IMP): 4 µg/mL
combined-use MIC (strain A6, EA (60% ethanol extract) + IMP combined): 16 µg/mL
combined-use MIC (strain A6, EA (95% ethanol extract) + IMP combined): 16 µg/mL
combined-use MIC (strain A6, EA (water extract) with IMP): 16 µg/mL
combined-use MIC (strain A7, EA (10% ethanol extract) with IMP): 8 µg/mL
combined-use MIC (strain A7, EA (60% ethanol extract) + IMP combined): 16 µg/mL
combined-use MIC (strain A7, EA (95% ethanol extract) + IMP combined): 16 µg/mL
combined-use MIC (strain A7, EA (water extract) with IMP): 16 µg/mL
combined-use MIC (strain A8, EA (10% ethanol extract) with IMP): 16 µg/mL
combined-use MIC (strain A8, EA (60% ethanol extract) + IMP combined): 16 µg/mL
combined-use MIC (strain A8, EA (95% ethanol extract) + IMP combined): 16 µg/mL
combined-use MIC (strain A8, EA (water extract) with IMP): 16 µg/mL
combined-use MIC (strain A9, EA (10% ethanol extract) with IMP): 8 µg/mL
combined-use MIC (strain A9, EA (60% ethanol extract) + IMP combined): 4 µg/mL
combined-use MIC (strain A9, EA (95% ethanol extract) + IMP combined): 4 µg/mL
combined-use MIC (strain A9, EA (water extract) with IMP): 16 µg/mL
combined-use MIC (strain A10, EA (10% ethanol extract) with IMP): 8 µg/mL
combined-use MIC (strain A10, EA (60% ethanol extract) + IMP combined): 8 µg/mL
combined-use MIC (strain A10, EA (95% ethanol extract) + IMP combined): 8 µg/mL
combined-use MIC (strain A10, EA (water extract) with IMP): 8 µg/mL
combined-use MIC (strain A11, EA (10% ethanol extract) with IMP): 8 µg/mL
combined-use MIC (strain A11, EA (60% ethanol extract) + IMP combined): 4 µg/mL
combined-use MIC (strain A11, EA (95% ethanol extract) + IMP combined): 4 µg/mL
combined-use MIC (strain A11, EA (water extract) with IMP): 8 µg/mL
combined-use MIC (strain A12, EA (10% ethanol extract) with IMP): 8 µg/mL
combined-use MIC (strain A12, EA (60% ethanol extract) + IMP combined): 8 µg/mL
combined-use MIC (strain A12, EA (95% ethanol extract) + IMP combined): 8 µg/mL
combined-use MIC (strain A12, EA (water extract) with IMP): 16 µg/mL
combined-use MIC (strain A13, EA (10% ethanol extract) with IMP): 8 µg/mL
combined-use MIC (strain A13, EA (60% ethanol extract) + IMP combined): 8 µg/mL
combined-use MIC (strain A13, EA (95% ethanol extract) + IMP combined): 8 µg/mL
combined-use MIC (strain A13, EA (water extract) with IMP): 16 µg/mL
combined-use MIC (strain A14, EA (10% ethanol extract) with IMP): 16 µg/mL
combined-use MIC (strain A14, EA (60% ethanol extract) + IMP combined): 4 µg/mL
combined-use MIC (strain A14, EA (95% ethanol extract) + IMP combined): 8 µg/mL
combined-use MIC (strain A14, EA (water extract) with IMP): 4 µg/mL
combined-use MIC (strain A15, EA (10% ethanol extract) with IMP): 8 µg/mL
combined-use MIC (strain A15, EA (60% ethanol extract) + IMP combined): 4 µg/mL
combined-use MIC (strain A15, EA (95% ethanol extract) + IMP combined): 8 µg/mL
combined-use MIC (strain A15, EA (water extract) with IMP): 4 µg/mL
combined-use MIC (strain A16, EA (10% ethanol extract) with IMP): 8 µg/mL
combined-use MIC (strain A16, EA (60% ethanol extract) + IMP combined): 8 µg/mL
combined-use MIC (strain A16, EA (95% ethanol extract) + IMP combined): 8 µg/mL
combined-use MIC (strain A16, EA (water extract) with IMP): 8 µg/mL
combined-use MIC (strain A17, EA (10% ethanol extract) with IMP): 4 µg/mL
combined-use MIC (strain A17, EA (60% ethanol extract) + IMP combined): 2 µg/mL
combined-use MIC (strain A17, EA (95% ethanol extract) + IMP combined): 2 µg/mL
combined-use MIC (strain A17, EA (water extract) with IMP): 2 µg/mL
combined-use MIC (strain A18, EA (10% ethanol extract) with IMP): 16 µg/mL
combined-use MIC (strain A18, EA (60% ethanol extract) + IMP combined): 8 µg/mL
combined-use MIC (strain A18, EA (95% ethanol extract) + IMP combined): 8 µg/mL
combined-use MIC (strain A18, EA (water extract) with IMP): 8 µg/mL
combined-use MIC (strain A19, EA (10% ethanol extract) with IMP): 8 µg/mL
combined-use MIC (strain A19, EA (60% ethanol extract) + IMP combined): 8 µg/mL
combined-use MIC (strain A19, EA (95% ethanol extract) + IMP combined): 8 µg/mL
combined-use MIC (strain A19, EA (water extract) with IMP): 8 µg/mL
combined-use MIC (strain A20, EA (10% ethanol extract) with IMP): 8 µg/mL
combined-use MIC (strain A20, EA (60% ethanol extract) + IMP combined): 8 µg/mL
combined-use MIC (strain A20, EA (95% ethanol extract) + IMP combined): 8 µg/mL
combined-use MIC (strain A20, EA (water extract) with IMP): 8 µg/mL
combined-use MIC (strain AS, EA (95% ethanol extract) + IMP combined): 8 µg/mL

From patent publication US11793849B2, “Method of Chinese herbal medicine extract used for treating multiple diseases caused by drug resistant bacteria infection” (priority 2016, dated 2023)
